Assay: mn = molality of the nth substance listed, in mol/kg
Conditions: 100 kPa, Liquid; for speed of sound: Frequency=3 MHz, Sing-around technique in a fixed-path interferometer; for mass density: Vibrating tube method

NCC(=O)NCC(=O)O [glycylglycine] + O
Conditions	mass density, 305.15 K [kg/m3]	mass density, 310.15 K [kg/m3]	mass density, 315.15 K [kg/m3]	speed of sound, 305.15 K [m/s]	speed of sound, 310.15 K [m/s]	speed of sound, 315.15 K [m/s]
m1 = 0.00206	995.2	993.513	991.618	1514.1	1524.1	1532.4
m1 = 0.00597	995.41	993.721	991.824	1514.8	1524.7	1532.9
m1 = 0.00797	995.517	993.827	991.929	1515.2	1525.1	1533.5
m1 = 0.01021	995.637	993.946	992.047	1515.4	1525.2	1533.6
m1 = 0.02015	996.168	994.474	992.568	1515.8	1525.6	1534
m1 = 0.05037	997.778	996.073	994.147	1517.8	1527.5	1535.8
m1 = 0.1008	1000.45	998.723	996.764	1521.6	1531.2	1539.4
m1 = 0.2021	1005.75	1003.99	1001.97	1529.5	1538.8	1546.9
m1 = 0.2959	1010.58	1008.79	1006.71	1536	1545.4	1553
m1 = 0.4	1015.86	1014.03	1011.88	1542.5	1551.6	1559.3

From the NIST ThermoML archive (doi:10.1016/j.tca.2014.07.025)
